From patent publication US20190008957A1, “COMBINATION THERAPIES INCLUDING INHIBITORS OF THE EXTRACELLULAR DOMAIN OF E-CADHERIN” (The Research Foundation for The State of New York, priority 2012, published 2019)
Where a SMILES comes first, the peptide text is derived from it. [ ]: non-standard residue; d: D form. Nle = CCCC[C@H](N)C(=O)O

Assays:
[1] = system: lysosome and ubiquitin-proteasome pathways; assay: Lysosome/proteasome inhibitor rescue of anti-sEcad mAb-induced apoptosis and HER1-4 expression; assay type: cell-based
Description: Cellular apoptosis was quantitatively determined using the Cell Death Apoptosis Detection ELISA Plus kit (Boehringer Mannheim), which is based on the detection of DNA-histone complexes in the form of mono- and oligo-nucleosomes, according to the manufacturer's instructions. Briefly, cells were treated in the presence or absence of various concentrations of DECMA-1 or rat IgG1 for 24 to 48 h. Cells were harvested by trypsinization, counted and lysates were subjected to the ELISA. In vitro and in vivo apoptosis was further analyzed by in situ detection of fragmented DNA, using the DeadEnd Fluorometric TUNEL System (Promega), the ApopTag Peroxidase In situ Apoptosis Detection Kit (Millipore) and the human Apoptosis Array Kit (ARY009, R & D), according to the manufacturer's instructions. The ApopTag kit was performed on deparaffinized 5 μm-thick sections treated with proteinase K (20 μg/ml) at RT. For cell counting, the cells were trypsinized and counted on a haemocytometer. For tumor BrdU analyses, tissues were stained using an anti-BrdU (ab2284, abcam) antibody, as previously described (27). The proliferation of cells was monitored by a cell proliferation ELISA 5-bromo-2′-deoxyuridine (BrdU) (colorimetric) kit (Roche, Stockholm, Sweden), according to the manufacturers protocol.
Human MCF-7 and BT474 parental cells were purchased from the American Type Culture Collection (ATCC), and cultured according to ATCC recommendations. BT474-Herceptin resistant cells were a kind gift of Dr. Kute (Wake Forest University, Winston-Salem, N.C.) and grown in 10% FBS RPMI-1640 medium (ATCC). Anti-sEcad ectodomain-specific antibodies include DECMA-1 (Sigma), HECD-1 (Calbiochem), SHE78-7 (Calbiochem) and H108 (Santa Cruz Biotechnology). The IAP antibody sampler kit was purchased from Cell Signaling. ALLN proteasome and chloroquine lysosome inhibitors were obtained from Sigma.

[2] = system: MCF-7, SKBR3 and MDA-MB-231 breast cancer cell lines; assay: BrdU proliferation in breast cancer cell lines; assay type: cell-based, human; conditions: for basal and sEcad-induced BrdU incorporation: breast cancer cells, Canertinib 1 μM, Lapatinib 5 μM, Gefitinib 5 μM
Description: (§1) For BrdU staining, cells were incubated with 10 μM BrdU for 2 h prior to fixation and processed for immunofluorescence microscopy as previously described (Brouxhon et al., Cancer Res. 67:7654-64, 2007). For BrdU analyses, cells were counted from 6 low-power fields (×100) per section. BrdU incorporation was also analyzed by a cell proliferation ELISA 5-bromo-2′-deoxyuridine (BrdU) (colorimetric) kit (Roche, Stockholm, Sweden), according to the manufacturer's instructions. Migration and invasion of cells were measured using 8.0 μm pore BD BioCoat Control Insert 24-well plates (no. 354578) and Matrigel Invasion Chamber 24-well Plates (no. 354480), respectively (BD Bioscience). Cells were collected, washed, and 2×10^5 cells were plated in 0.4% FBS medium in the top chamber, with 0-20 μg/mL of rhEcad/Fc in the bottom chamber. After 22 h, cells on the top were removed using a cotton swab. Migrated or invaded cells on the lower surface were fixed with methanol, stained with 0.5% crystal violet, examined by bright field microscopy and photographed. Migration or invasion was quantitated by counting migrated or invaded cells in at least ten random high-power fields per insert and expressed as averages. Results are presented as fold change of the number of migrated/invaded cells to the untreated controls in triplicate experiments.

[3] = system: oropharyngeal FADU and skin SCC (PAM212, CC4A, SCC13 and SCC12b) cell lines; assay: Proliferation in oropharyngeal and skin SCC cell lines; assay type: cell-based; conditions: PAM212 skin SCC cells; HER inhibitors
Description: as §1

[4] = system: skin (PAM212, CC4A, SCC12b, SCC13) and oropharyngeal (FADU) cells; assay: Transwell migration of SCC cells; assay type: cell-based; conditions: PAM212 skin SCC cells; HER inhibitors
Description: as §1

[5] = system: skin (SCC12b, SCC13, PAM212 and CC4A) and the head & neck FADU cell line; assay: Matrigel invasion of SCC cells; assay type: cell-based; conditions: for sEcad-induced invasion: PAM212 skin SCC cells, HER inhibitors
HER1, HER2, IGF-1R = assay: Western blot of receptor phosphorylation in skin and oropharyngeal SCC cell lines; assay type: cell-based; conditions: PAM212 cells
Description: (§2) After brief sonication, lysates were cleared by centrifugation at 4° C. […] After transfer to nitrocellulose membrane and blocking with 1% BSA, samples were probed with primary antibodies. Western blot images were captured using HP Scanjet G4050 and analyzed relative to G3PDH or actin using NIH Scion Image.
(§3) Antibodies against total HER1 and HER 4 and phosphorylated HER1-4, pPI3K, pAkt, pmTOR, p4E-BP1, pRaptor and pp70S6K obtained from Cell Signaling Technologies. Monoclonal antibodies to HER3 and HER4 were obtained from Thermo Scientific. Polyclonal antibody to the extracellular domain of E-cadherin and monoclonal antibody to α-actin were obtained from Santa Cruz Biotechnology. Monoclonal antibody to the extracellular domain of E-cadherin (DECMA-1) and to His Tag were obtained from Sigma and Abcam, respectively. Monoclonal antibody to G3PDH, ubiquitin and rat IgG1 were obtained from Ambion, Zymed and Southern Biotechnology, respectively.

[6] = system: MDA-MB-231 and MCF-7 breast cancer cells; assay: Matrigel invasion of breast cancer cells; assay type: cell-based, human
Description: as §1, with “After 22 h, cells on the top were removed using a cotton swab.” left out

[7] = system: MEK1/2, ERK1/2, PI3K, Akt, mTOR, p70S6K, 4EBP1; assay: Western blot of downstream MAPK-PI3K/Akt/mTOR signaling in SCC cell lines; assay type: cell-based; conditions: PAM212 cells
Description: as §2, §3

[8] = system: breast (MCF-7, SKBR3) cells; assay: Transwell migration of breast cancer cells; assay type: cell-based, human
Description: as §1, with “After 22 h, cells on the top were removed using a cotton swab.” left out

HER1-4 = assay: Western blot of HER phosphorylation in breast cancer cells; assay type: cell-based, human; conditions: MCF-7 cells, equimolar concentrations, compared to sEcad alone
Excerpt: The association of sEcad with these RTK was also confirmed by in vitro studies. Specifically, in cell culture systems, extracts from sEcad (rhEcad/Fc:His tagged) treated E-cadherin positive MCF-7 and E-cadherin negative SKBR3 and MDA-MB-231 breast cancer cells were immunoprecipitated with HER1-4-specific antibodies and analyzed by western blotting with a His-tagged-specific antibody. Here, we detected HER1-4-sEcad, HER1-2-sEcad and HER1-sEcad interactions in MCF, SKBR3 and MDA-MB-231 breast cancer cells, respectively. […] Because ligand binding to the HER family of receptors induces the formation of homo- and heterodimers, resulting in phosphorylation on specific tyrosine residues within the cytoplasmic domain (Yarden and Siliwkowski, Nature Reviews. 2:127-137, 2001), we next used western blot assays to examine whether sEcad promotes HER phosphorylation and downstream signaling.
Immunoprecipitation assays were carried out by harvesting tissues or cells with immunoprecipitation lysis buffer (20 mM Tris-HCl, pH 7.5; 137 mM NaCl; 100 mM NaF; 10% glycerol (vol/vol); 1% (vol/vol) Nonidet P-40; 1 mM PMSF and protease inhibitor cocktail (Sigma)). After brief sonication, lysates were cleared by centrifugation at 4° C. […] Western blot images were captured using HP Scanjet G4050 and analyzed relative to G3PDH or actin using NIH Scion Image. […]

[9] = MCF-7 cells, 24 h, equimolar concentrations

Molecule: CCCC[C@@H](C=O)NC(=O)[C@H](CC(C)C)NC(=O)[C@H](CC(C)C)NC(C)=O [ALLN] (Ac-Leu-Leu-[Nle]-aldehyde)
- HER1-4 expression in anti-sEcad mAb treated cells in presence of inhibitor [1]: rescue of HER1-4 expression
- anti-sEcad mAb-induced apoptosis in presence of inhibitor [1]: inhibited

Molecule: C=CC(=O)Nc1cc2c(Nc3ccc(F)c(Cl)c3)ncnc2cc1OCCCN1CCOCC1 [Canertinib]
- basal and sEcad-induced BrdU incorporation [2]: significantly reduced both basal and sEcad-induced BrdU incorporation
- sEcad-induced proliferation [3]: effectively inhibited sEcad-induced proliferation, migration and invasion
- sEcad-induced migration [4]: effectively inhibited sEcad-induced proliferation, migration and invasion
- sEcad-induced invasion [5]: effectively inhibited sEcad-induced proliferation, migration and invasion
- sEcad-induced HER1 phosphorylation (HER1, HER2, IGF-1R): completely abrogated
- sEcad-induced HER2 phosphorylation (pHER2) (HER1, HER2, IGF-1R): completely abrogated
- phospho-IGF-1R levels (HER1, HER2, IGF-1R; in the presence of sEcad, compared to corresponding controls): did not alter

Molecule: CCN(CC)CCCC(C)Nc1ccnc2cc(Cl)ccc12 (stereo not shown) [Chloroquine]
- HER1-4 expression in anti-sEcad mAb treated cells in presence of inhibitor [1]: rescued HER1-4 membrane expression
- anti-sEcad mAb-induced apoptosis in presence of inhibitor [1]: prevented anti-sEcad mAb-induced apoptosis at low doses

Molecule: CNC(=O)[C@H](Cc1c[nH]c2ccccc12)NC(=O)[C@@H](CC(=O)NO)CC(C)C [GM6001, Ilomastat]
- sEcad-stimulated invasion ([5]; PAM212 cells treated with 20 μg/mL rmEcad/Fc): completely blocked

Molecule: COc1cc2ncnc(Nc3ccc(F)c(Cl)c3)c2cc1OCCCN1CCOCC1 [Gefitinib]
- basal and sEcad-induced invasion ([6]; MDA-MB-231 cell line, compared to untreated controls): significantly reduced
- sEcad-induced phosphorylation of 4EBP1 [7]: only minimal effects
- sEcad-induced phosphorylation of ERK1/2, Akt and p70S6K [7]: decreased
- sEcad-induced phosphorylation of PI3K [7]: decreased
- basal and sEcad-induced BrdU incorporation [2]: significantly reduced both basal and sEcad-induced BrdU incorporation
- sEcad-induced proliferation [3]: effectively inhibited sEcad-induced proliferation, migration and invasion
- sEcad-induced migration [4]: effectively inhibited sEcad-induced proliferation, migration and invasion
- sEcad-induced invasion [5]: effectively inhibited sEcad-induced proliferation, migration and invasion

Molecule: FC(F)(F)c1ccc(/C=C/c2nc(COc3ccc(CCCCn4ccnn4)cc3)co2)cc1 [Mubritinib]
- basal and rhEcad/Fc-mediated migration ([8]; breast cancer cells (MCF-7)): only blocked sECad-induced MCF-7 migration

Molecule: rhEGF: Recombinant human EGF (Enzo Life Sciences) (NSDSECPLSHDGYCLHDGVCMYIEALDKYACNCVVGYIGERCQYRDLKWWELR)
- invasion [6, 9]: significantly increased proliferation, migration and invasion
- proliferation [2, 9]: significantly increased proliferation, migration and invasion
- HER1 and ERK1/2 phosphorylation (HER1-4): more potent effects on HER1 and ERK1/2 phosphorylation
- migration [8, 9]: significantly increased proliferation, migration and invasion
